Data reported in patent US20220089575A1, “FARNESOID X RECEPTOR AGONISTS AND USES THEREOF” (Metacrine, Inc., priority 2017, published 2022).

Target: T1, hFXR (Homo sapiens, UniProt Q96RI1)
T1 construct: expressed in transfected cells; host or cells: CV-1 cells
T1 sequence (Q96RI1 1-486): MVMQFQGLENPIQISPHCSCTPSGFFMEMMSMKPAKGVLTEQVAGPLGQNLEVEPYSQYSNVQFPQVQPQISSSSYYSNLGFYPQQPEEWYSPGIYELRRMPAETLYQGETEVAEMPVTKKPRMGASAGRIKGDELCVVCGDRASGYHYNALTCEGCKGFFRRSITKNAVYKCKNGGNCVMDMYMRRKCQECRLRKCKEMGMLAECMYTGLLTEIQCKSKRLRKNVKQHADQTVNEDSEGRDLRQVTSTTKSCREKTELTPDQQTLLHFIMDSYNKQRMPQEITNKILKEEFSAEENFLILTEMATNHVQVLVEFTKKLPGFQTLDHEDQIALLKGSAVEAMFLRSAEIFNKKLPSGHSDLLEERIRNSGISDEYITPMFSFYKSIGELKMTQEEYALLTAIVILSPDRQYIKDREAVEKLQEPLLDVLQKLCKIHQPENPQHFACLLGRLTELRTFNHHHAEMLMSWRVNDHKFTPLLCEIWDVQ
T1 sequence (P19793 1-462 partner): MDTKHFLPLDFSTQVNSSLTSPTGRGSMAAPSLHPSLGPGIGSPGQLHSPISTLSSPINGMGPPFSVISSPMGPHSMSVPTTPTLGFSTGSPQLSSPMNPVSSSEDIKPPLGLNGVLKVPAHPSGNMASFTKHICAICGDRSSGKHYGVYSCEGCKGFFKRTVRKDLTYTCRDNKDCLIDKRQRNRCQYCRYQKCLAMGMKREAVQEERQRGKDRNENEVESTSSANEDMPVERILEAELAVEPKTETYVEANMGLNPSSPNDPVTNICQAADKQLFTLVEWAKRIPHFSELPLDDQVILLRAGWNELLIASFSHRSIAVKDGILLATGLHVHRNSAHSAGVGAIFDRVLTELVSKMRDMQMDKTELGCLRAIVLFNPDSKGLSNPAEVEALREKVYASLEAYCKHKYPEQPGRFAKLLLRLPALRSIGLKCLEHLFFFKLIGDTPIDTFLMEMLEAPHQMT
Assay: In Vitro FXR Assay (TK): TK-ECRE-luc reporter in transfected CV-1 cells
Type: cell-based
Conditions: 18 hrs, luminescence, maximum efficacy of <25% of the Fexarmine control classified as '+'
Procedure, shortened: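 Luciferase read-out after 18 h compound exposure of CV-1 cells carrying transfected hFXR plus hRXR expression plasmids, TK-ECRE-luc reporter and pCMX-YFP. Cells cultured in charcoal-stripped FBS before transfection; compounds serially diluted in DMSO.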

Structure (SMILES) | EC50 [µM]
CNC(=O)O[C@H]1CC[C@H](C(=O)N(C[C@H]2CC[C@H](c3ccc(OC)c(C)c3)CC2)c2cccc(-c3cc(C4CC4)ns3)c2)CC1 [Compound 2, trans-4-((3-(3-Cyclopropylisothiazol-5-yl)phenyl)((trans-4-(4-methoxy-3-methylphenyl)cyclohexyl)methyl)carbamoyl)cyclohexyl methylcarbamate] | ≤ 0.25
COc1ccc([C@H]2CC[C@H](CN(c3cccc(-c4cnn(C(C)C)c4)c3)C(=O)[C@H]3CC[C@H](OCC(=O)O)CC3)CC2)cc1C [Compound 12, 2-((trans-4-((3-(1-Isopropyl-1H-pyrazol-4-yl)phenyl)((trans-4-(4-methoxy-3-methylphenyl)cyclohexyl)methyl)carbamoyl)cyclohexyl)oxy)acetic acid] | ≤ 0.25
CNC(=O)O[C@H]1CC[C@H](C(=O)N(C[C@H]2CC[C@H](c3ccc(OC)c(C)c3)CC2)c2cc(-c3ccc(N(C)C)nc3)ccn2)CC1 [Compound 5.40, trans-4-((6-(Dimethylamino)-[3,4′-bipyridin]-2′-yl)((trans-4-(4-methoxy-3-methylphenyl)cyclohexyl)methyl)carbamoyl)cyclohexyl methylcarbamate] | ≤ 0.25
COc1ccc([C@H]2CC[C@H](CN(c3cc(-c4coc(C5CC5)n4)ccn3)C(=O)[C@H]3CC[C@H](OC(=O)N[C@H](C)CO)CC3)CC2)nc1C [Compound 6.94, trans-4-((4-(2-Cyclopropyloxazol-4-yl)pyridin-2-yl)((trans-4-(5-methoxy-6-methylpyridin-2-yl)cyclohexyl)methyl)carbamoyl)cyclohexyl ((R)-1-hydroxypropan-2-yl)carbamate] | ≤ 0.25
CNC(=O)O[C@H]1CC[C@H](C(=O)N(C[C@H]2CC[C@H](c3ccc(OC)c(C)c3)CC2)c2cc(-c3cnc(C(C)C)s3)ccn2)CC1 [Compound 5.02, trans-4-((4-(2-Isopropylthiazol-5-yl)pyridin-2-yl)((trans-4-(4-methoxy-3-methylphenyl)cyclohexyl)methyl)carbamoyl)cyclohexyl methylcarbamate] | ≤ 0.25
COCCN(C)C(=O)O[C@H]1CC[C@H](C(=O)N(C[C@H]2CC[C@H](c3ccc(OC)c(C)c3)CC2)c2cccc(-c3cnn(C4CC4)c3)c2)CC1 [Compound 6.26, trans-4-((3-(1-Cyclopropyl-1H-pyrazol-4-yl)phenyl)((trans-4-(4-methoxy-3-methylphenyl)cyclohexyl)methyl)carbamoyl)cyclohexyl (2-methoxyethyl) (methyl)carbamate] | ≤ 0.25
COc1ccc([C@H]2CC[C@H](CN(c3cc(-c4coc(C5CC5)n4)ccn3)C(=O)[C@H]3CC[C@H](OC(=O)N4CCN(C)CC4)CC3)CC2)cc1C [Compound 6.64, trans-4-((4-(2-Cyclopropyloxazol-4-yl)pyridine-2-yl)((trans-4-(4-methoxy-3-methylphenyl)cyclohexyl)methyl)carbamoyl)cyclohexyl 4-methylpiperazine-1-carboxylate] | ≤ 0.25
COc1ccc(C23CCC(CN(c4cccc(-c5cnc(C6CC6)s5)c4)C(=O)[C@H]4CC[C@H](OC(=O)NCCO)CC4)(CC2)CC3)cc1C [Compound 4.02, 4-((3-(2-Cyclopropylthiazol-5-yl)phenyl)((4-(4-methoxy-3-methylphenyl)bicyclo[2.2.2]octan-1-yl)methyl)carbamoyl)cyclohexyl (2-hydroxyethyl)trans-carbamate] | ≤ 0.25

Further lines, results first:

EC50 [µM] | Structure (SMILES)
≤ 0.25 | COc1ccc([C@H]2CC[C@H](CN(c3cc(-c4coc(C5CC5)n4)ccn3)C(=O)[C@H]3CC[C@H](NC(=O)C4CC(OC)C4)CC3)CC2)nc1C (stereo partly drawn) [Compound 30.03, trans-N-(4-(2-Cyclopropyloxazol-4-yl)pyridin-2-yl)-N-((trans-4-(5-methoxy-6-methylpyridin-2-yl)cyclohexyl)methyl)-4-(3-methoxycyclobutanecarboxamido) cyclohexanecarboxamide]
≤ 0.25 | COCC1CN(C(=O)O[C@H]2CC[C@H](C(=O)N(C[C@H]3CC[C@H](c4ccc(OC)c(C)n4)CC3)c3cc(-c4coc(C5CC5)n4)ccn3)CC2)C1 [Compound 7.77, trans-4-((4-(2-Cyclopropyloxazol-4-yl)pyridin-2-yl)((trans-4-(5-methoxy-6-methylpyridin-2-yl)cyclohexyl)methyl)carbamoyl)cyclohexyl 3-(methoxymethyl)azetidine-1-carboxylate]
≤ 0.25 | COc1ncc(-c2cccc(N(C[C@H]3CC[C@H](c4ccc(OC)c(C)c4)CC3)C(=O)C34CCC(C(=O)O)(CC3)CC4)c2)s1 [Compound 17.02, 4-(((trans-4-(4-Methoxy-3-methylphenyl)cyclohexyl)methyl)(3-(2-methoxythiazol-5-yl)phenyl)carbamoyl)bicyclo[2.2.2]octane-1-carboxylic acid]
≤ 0.25 | COc1ccc([C@H]2CC[C@H](CN(c3cc(-c4cnn(C5CC5)c4)ccn3)C(=O)[C@H]3CC[C@H](C(=O)O)CC3)CC2)cc1C [Compound 17.20, trans-4-((4-(1-Cyclopropyl-1H-pyrazol-4-yl)pyridin-2-yl)((trans-4-(4-methoxy-3-methylphenyl)cyclohexyl)methyl)carbamoyl)cyclohexanecarboxylic acid]
≤ 0.25 | COc1ccc([C@H]2CC[C@H](CN(c3cc(-c4cnn(C(C)C)c4)ccn3)C(=O)[C@H]3CC[C@H](NC(=O)COC(C)=O)CC3)CC2)cc1C [Compound 26.34, 2-((trans-4-((4-(1-Isopropyl-1H-pyrazol-4-yl)pyridin-2-yl)((trans-4-(4-methoxy-3-methylphenyl)cyclohexyl)methyl)carbamoyl)cyclohexyl)amino)-2-oxoethyl acetate]
≤ 0.25 | COc1ccc([C@H]2CC[C@H](CN(c3cccc(-c4cnn(C5CC5)c4)c3)C(=O)[C@H]3CC[C@H](OC(=O)N4CC[S+]([O-])CC4)CC3)CC2)cc1C [Compound 7.29, trans-4-((3-(1-Cyclopropyl-1H-pyrazol-4-yl)phenyl)((trans-4-(4-methoxy-3-methylphenyl)cyclohexyl)methyl)carbamoyl)cyclohexyl thiomorpholine-4-carboxylate 1-oxide]
≤ 0.25 | COc1ccc([C@H]2CC[C@H](CN(c3cc(-c4cnn(C(C)C)c4)ccn3)C(=O)[C@H]3CC[C@H](NC(=O)CO)CC3)CC2)cc1C [Compound 26.35, trans-4-(2-Hydroxyacetamido)-N-(4-(1-isopropyl-1H-pyrazol-4-yl)pyridin-2-yl)-N-((trans-4-(4-methoxy-3-methylphenyl)cyclohexyl)methyl) cyclohexanecarboxamide]
≤ 0.25 | COc1ccc([C@H]2CC[C@H](CN(c3cc(-c4coc(C5CC5)n4)ccn3)C(=O)[C@H]3CC[C@H](OC(=O)N4CC(C#N)C4)CC3)CC2)nc1C [Compound 7.88, trans-4-((4-(2-Cyclopropyloxazol-4-yl)pyridine-2-yl)((trans-4-(5-methoxy-6-methylpyridin-2-yl)cyclohexyl)methyl)carbamoyl)cyclohexyl 3-cyanoazetidine-1-carboxylate]
≤ 0.25 | COc1ccc([C@H]2CC[C@H](CN(c3cc(-c4cnn(C(C)C)c4)ccn3)C(=O)[C@H]3CC[C@H](NC(C)=O)CC3)CC2)cc1C [Compound 26.33, trans-4-Acetamido-N-(4-(1-isopropyl-1H-pyrazol-4-yl)pyridin-2-yl)-N-((trans-4-(4-methoxy-3-methylphenyl)cyclohexyl)methyl)cyclohexanecarboxamide]
≤ 0.25 | CCCC1CN(C(=O)O[C@H]2CC[C@H](C(=O)N(C[C@H]3CC[C@H](c4ccc(OC)c(C)n4)CC3)c3cc(-c4coc(C5CC5)n4)ccn3)CC2)C1 [Compound 7.105, trans-4-((4-(2-Cyclopropyloxazol-4-yl)pyridin-2-yl)((trans-4-(5-methoxy-6-methylpyridin-2-yl)cyclohexyl)methyl)carbamoyl)cyclohexyl 3-propylazetidine-1-carboxylate]
≤ 0.25 | COCCO[C@H]1CC[C@H](C(=O)N(C[C@H]2CC[C@H](c3ccc(OC)c(C)c3)CC2)c2cccc(-c3cnc(OC)s3)c2)CC1 [Compound 13.01, trans-N-((trans-4-(4-Methoxy-3-methylphenyl)cyclohexyl)methyl)-4-(2-methoxyethoxy)-N-(3-(2-methoxythiazol-5-yl)phenyl) cyclohexanecarboxamide]
≤ 0.25 | COc1ccc([C@H]2CC[C@H](CN(c3cccc(-c4cnn(C5CC5)c4)c3)C(=O)[C@H]3CC[C@H](OC(=O)N4CC(N)C4)CC3)CC2)cc1C [Compound 7.39, trans-4-((3-(1-Cyclopropyl-1H-pyrazol-4-yl)phenyl)((trans-4-(4-methoxy-3-methylphenyl)cyclohexyl)methyl)carbamoyl)cyclohexyl 3-aminoazetidine-1-carboxylate]
